Assay results taken from patent US6914045B2, “Glycopeptide antibiotics” (Wyeth Holdings Corporation, priority 2001, dated 2005).
Converted amounts (≈) assume the structure as drawn. Values belong to the molecule of their own block, whether it stands above or below them.

Assays:
Test in all cases: in vitro antibacterial evaluation, MIC by broth dilution
Assay type in all cases: cell-based
Enterococcus sp. = details: broth dilution, 18 hours at 35° C.
Outline: (§1)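 Inoculum 5×10^5 CFU/mL; concentrations 64 to 0.06 μg/mL; MIC defined as lowest inhibitory level. Conducted by broth dilution under NCCLS guidelines.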

Escherichia coli = details: 18 hours at 35° C.
Outline: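 Test organisms, which included recent clinical isolates resistant to methicillin, penicillin and/or vancomycin, were inoculated at 5×10^5 CFU/mL into Muller-Hinton II […] containing antibiotic at 64-0.06 μg/mL. Minimum inhibitory concentrations were then read as the lowest level inhibiting growth.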

Staphylococcus sp. = details: broth dilution, 18 hours at 35° C.
Outline: as §1

Streptococcus sp. = details: broth dilution, 18 hours at 35° C.
Outline: as §1

[1] = Enterococcus faecalis (ATCC 29212)
[2] = Enterococcus faecalis (GC 4553)
[3] = Enterococcus faecalis (GC 4554)

MIC Enterococcus avium (GC 4558) (Enterococcus sp.; Enterococcus avium (GC 4558)): >64 µg/mL
MIC Enterococcus faecalis (ATCC 29212) (Enterococcus sp.; [1]): >64 µg/mL
MIC Enterococcus faecalis (GC 4553) (Enterococcus sp.; [2]): >64 µg/mL
MIC Enterococcus faecalis (GC 4554) (Enterococcus sp.; [3]): >64 µg/mL
MIC Enterococcus faecium (GC 2243) (Enterococcus sp.; Enterococcus faecium (GC 2243)): >64 µg/mL
MIC Enterococcus faecium (GC 4556) (Enterococcus sp.; Enterococcus faecium (GC 4556)): >64 µg/mL
MIC Enterococcus faecium (GC 4557) (Enterococcus sp.; Enterococcus faecium (GC 4557)): >64 µg/mL
MIC Enterococcus faecalis (GC 2242) (Enterococcus sp.): >64 µg/mL
MIC Enterococcus faecalis (GC 4552) (Enterococcus sp.): >64 µg/mL
MIC Enterococcus faecalis (ATCC 29212) (Enterococcus sp.; strain ATCC 29212): >64 µg/mL
MIC Enterococcus faecalis (GC 2242) (Enterococcus sp.; strain GC 2242): >64 µg/mL
MIC Enterococcus faecium (GC 2243) (Enterococcus sp.; strain GC 2243): >64 µg/mL
MIC Enterococcus faecalis (GC 4552) (Enterococcus sp.; strain GC 4552): >64 µg/mL
MIC Enterococcus faecalis (GC 4553) (Enterococcus sp.; strain GC 4553): >64 µg/mL
MIC Enterococcus faecalis (GC 4554) (Enterococcus sp.; strain GC 4554): >64 µg/mL
MIC Enterococcus faecium (GC 4556) (Enterococcus sp.; strain GC 4556): >64 µg/mL
MIC Enterococcus faecium (GC 4557) (Enterococcus sp.; strain GC 4557): >64 µg/mL
MIC Enterococcus avium (GC 4558) (Enterococcus sp.; strain GC 4558): >64 µg/mL
MIC Escherichia coli (ATCC 25922) (Escherichia coli; Escherichia coli (ATCC 25922)): >64 µg/mL
MIC Escherichia coli (GC 4559) (Escherichia coli; Escherichia coli (GC 4559)): >64 µg/mL
MIC Escherichia coli (GC 4560) (Escherichia coli; Escherichia coli (GC 4560)): >64 µg/mL
MIC Coagulase Negative Staphylococcus (GC 4547) (Staphylococcus sp.): >64 µg/mL
MIC Coagulase Negative Staphylococcus (GC 4548) (Staphylococcus sp.): >64 µg/mL
MIC Coagulase Negative Staphylococcus (GC 4549) (Staphylococcus sp.): >64 µg/mL
MIC Coagulase Negative Staphylococcus (GC 4551) (Staphylococcus sp.): >64 µg/mL
MIC Staphylococcus aureus (ATCC 29213) (Staphylococcus sp.): >64 µg/mL
MIC Staphylococcus aureus (GC 1131) (Staphylococcus sp.): >64 µg/mL
MIC Staphylococcus aureus (GC 4541) (Staphylococcus sp.): >64 µg/mL
MIC Staphylococcus aureus (GC 4542) (Staphylococcus sp.): >64 µg/mL
MIC Staphylococcus aureus (GC 4544) (Staphylococcus sp.): >64 µg/mL
MIC Staphylococcus aureus (GC 4545) (Staphylococcus sp.): >64 µg/mL
MIC Staphylococcus aureus-SMITH (GC 4543) (Staphylococcus sp.): >64 µg/mL
MIC Staphylococcus aureus (ATCC 29213) (Staphylococcus sp.; strain ATCC 29213): >64 µg/mL
MIC Staphylococcus aureus (GC 1131) (Staphylococcus sp.; strain GC 1131): >64 µg/mL
MIC Staphylococcus aureus (GC 4541) (Staphylococcus sp.; strain GC 4541): >64 µg/mL
MIC Staphylococcus aureus (GC 4542) (Staphylococcus sp.; strain GC 4542): >64 µg/mL
MIC Staphylococcus aureus (GC 4544) (Staphylococcus sp.; strain GC 4544): >64 µg/mL
MIC Staphylococcus aureus (GC 4545) (Staphylococcus sp.; strain GC 4545): >64 µg/mL
MIC Streptococcus agalactiae (GC 4564) (Streptococcus sp.): >64 µg/mL
MIC Streptococcus pyogenes (ID-3187) (Streptococcus sp.): >64 µg/mL
MIC Streptococcus agalactiae (GC 4564) (Streptococcus sp.; strain GC 4564): >64 µg/mL
MIC Streptococcus pyogenes (ID-3187) (Streptococcus sp.; strain ID-3187): >64 µg/mL
Compound: CC(c1ccc(F)cc1)C1NC(=O)CNC(=O)C(CO)NC(=O)C(C(O)C2CNC(=N)N2C2OC(CO)C(O)C(O)C2O)NC(=O)C(C(O)C2CNC(=N)N2)NC(=O)C(Cc2ccc(OC3OC(CO)C(OC4OC(CO)C(O)C(O)C4O)C(O)C3O)cc2)NC1=O (stereo not drawn) [Example 261a, Cyclo[glycyl-4-fluoro-β-methylphenylalanyl-O-(4-O-hexopyranosylhexopyranosyl)tyrosyl-3-(2-iminoimidazolidin-4-yl)seryl-3-(3-hexopyranosyl-2-iminoimidazolidin-4-yl)serylseryl]]
MIC Staphylococcus haemolyticus (GC 4546) (Staphylococcus sp.): >64 µg/mL

MIC Enterococcus avium (GC 4558) (Enterococcus sp.; Enterococcus avium (GC 4558)): 0.25 µg/mL (≈ 0.177 µM)
MIC Enterococcus faecalis (ATCC 29212) (Enterococcus sp.; [1]): 4 µg/mL (≈ 2.83 µM)
MIC Enterococcus faecalis (GC 2242) (Enterococcus sp.; Enterococcus faecalis (GC 2242)): 4 µg/mL (≈ 2.83 µM)
MIC Enterococcus faecalis (GC 2691) (Enterococcus sp.; Enterococcus faecalis (GC 2691)): 4 µg/mL (≈ 2.83 µM)
MIC Enterococcus faecalis (GC 3059) (Enterococcus sp.; Enterococcus faecalis (GC 3059)): 4 µg/mL (≈ 2.83 µM)
MIC Enterococcus faecalis (GC 4552) (Enterococcus sp.; Enterococcus faecalis (GC 4552)): 4 µg/mL (≈ 2.83 µM)
MIC Enterococcus faecalis (GC 4553) (Enterococcus sp.; [2]): 4 µg/mL (≈ 2.83 µM)
MIC Enterococcus faecalis (GC 4554) (Enterococcus sp.; [3]): 4 µg/mL (≈ 2.83 µM)
MIC Enterococcus faecalis (GC 6189) (Enterococcus sp.; Enterococcus faecalis (GC 6189)): 4 µg/mL (≈ 2.83 µM)
MIC Enterococcus faecium (GC 2243) (Enterococcus sp.; Enterococcus faecium (GC 2243)): 4 µg/mL (≈ 2.83 µM)
MIC Enterococcus faecium (GC 4556) (Enterococcus sp.; Enterococcus faecium (GC 4556)): 4 µg/mL (≈ 2.83 µM)
MIC Enterococcus faecium (GC 4557) (Enterococcus sp.; Enterococcus faecium (GC 4557)): 1 µg/mL (≈ 0.708 µM)
MIC Enterococcus faecalis (ATCC 29212) (Enterococcus sp.; strain ATCC 29212): 4 µg/mL (≈ 2.83 µM)
MIC Enterococcus faecalis (GC 2242) (Enterococcus sp.; strain GC 2242): 4 µg/mL (≈ 2.83 µM)
MIC Enterococcus faecium (GC 2243) (Enterococcus sp.; strain GC 2243): 4 µg/mL (≈ 2.83 µM)
MIC Enterococcus faecalis (GC 2691) (Enterococcus sp.; strain GC 2691): 4 µg/mL (≈ 2.83 µM)
MIC Enterococcus faecalis (GC 3059) (Enterococcus sp.; strain GC 3059): 4 µg/mL (≈ 2.83 µM)
MIC Enterococcus faecalis (GC 4552) (Enterococcus sp.; strain GC 4552): 4 µg/mL (≈ 2.83 µM)
MIC Enterococcus faecalis (GC 4553) (Enterococcus sp.; strain GC 4553): 4 µg/mL (≈ 2.83 µM)
MIC Enterococcus faecalis (GC 4554) (Enterococcus sp.; strain GC 4554): 4 µg/mL (≈ 2.83 µM)
MIC Enterococcus faecium (GC 4556) (Enterococcus sp.; strain GC 4556): 4 µg/mL (≈ 2.83 µM)
MIC Enterococcus faecium (GC 4557) (Enterococcus sp.; strain GC 4557): 1 µg/mL (≈ 0.708 µM)
MIC Enterococcus avium (GC 4558) (Enterococcus sp.; strain GC 4558): 0.25 µg/mL (≈ 0.177 µM)
MIC Enterococcus faecalis (GC 6189) (Enterococcus sp.; strain GC 6189): 4 µg/mL (≈ 2.83 µM)
MIC Escherichia coli (ATCC 25922) (Escherichia coli; strain ATCC 25922): 32 µg/mL (≈ 22.7 µM)
MIC Escherichia coli (GC 4559) (Escherichia coli; strain GC 4559): 32 µg/mL (≈ 22.7 µM)
MIC Escherichia coli (GC 4560) (Escherichia coli; strain GC 4560): 1 µg/mL (≈ 0.708 µM)
MIC Staphylococcus aureus (ATCC 29213) (Staphylococcus sp.): 2 µg/mL (≈ 1.42 µM)
MIC Staphylococcus aureus (GC 1131) (Staphylococcus sp.): 2 µg/mL (≈ 1.42 µM)
MIC Staphylococcus aureus (GC 3051) (Staphylococcus sp.): 2 µg/mL (≈ 1.42 µM)
MIC Staphylococcus aureus (GC 3053) (Staphylococcus sp.): 2 µg/mL (≈ 1.42 µM)
MIC Staphylococcus aureus (GC 4541) (Staphylococcus sp.): 2 µg/mL (≈ 1.42 µM)
MIC Staphylococcus aureus (GC 4542) (Staphylococcus sp.): 1 µg/mL (≈ 0.708 µM)
MIC Staphylococcus aureus (GC 4544) (Staphylococcus sp.): 2 µg/mL (≈ 1.42 µM)
MIC Staphylococcus aureus (GC 4545) (Staphylococcus sp.): 2 µg/mL (≈ 1.42 µM)
MIC Staphylococcus aureus (GC 1131) (Staphylococcus sp.; inoculum 5×10^5 CFU/mL, strain GC 1131): 2 µg/mL (≈ 1.42 µM)
MIC Staphylococcus aureus (ATCC 29213) (Staphylococcus sp.; strain ATCC 29213): 2 µg/mL (≈ 1.42 µM)
MIC Staphylococcus aureus (GC 3051) (Staphylococcus sp.; strain GC 3051): 2 µg/mL (≈ 1.42 µM)
MIC Staphylococcus aureus (GC 3053) (Staphylococcus sp.; strain GC 3053): 2 µg/mL (≈ 1.42 µM)
MIC Staphylococcus aureus (GC 4541) (Staphylococcus sp.; strain GC 4541): 2 µg/mL (≈ 1.42 µM)
MIC Staphylococcus aureus (GC 4542) (Staphylococcus sp.; strain GC 4542): 1 µg/mL (≈ 0.708 µM)
MIC Staphylococcus aureus-SMITH (GC 4543) (Staphylococcus sp.; strain GC 4543): 2 µg/mL (≈ 1.42 µM)
MIC Staphylococcus aureus (GC 4544) (Staphylococcus sp.; strain GC 4544): 2 µg/mL (≈ 1.42 µM)
MIC Staphylococcus aureus (GC 4545) (Staphylococcus sp.; strain GC 4545): 2 µg/mL (≈ 1.42 µM)
MIC Coagulase Negative Staphylococcus (GC 4547) (Staphylococcus sp.; strain GC 4547): 2 µg/mL (≈ 1.42 µM)
MIC Coagulase Negative Staphylococcus (GC 4548) (Staphylococcus sp.; strain GC 4548): 1 µg/mL (≈ 0.708 µM)
MIC Coagulase Negative Staphylococcus (GC 4549) (Staphylococcus sp.; strain GC 4549): 1 µg/mL (≈ 0.708 µM)
MIC Coagulase Negative Staphylococcus (GC 4551) (Staphylococcus sp.; strain GC 4551): 2 µg/mL (≈ 1.42 µM)
MIC Coagulase Negative Staphylococcus (GC 6257) (Staphylococcus sp.; strain GC 6257): 1 µg/mL (≈ 0.708 µM)
MIC Staphylococcus aureus-SMITH (GC 4543) (Staphylococcus sp.; strain SMITH GC 4543): 2 µg/mL (≈ 1.42 µM)
MIC Streptococcus agalactiae (GC 4564) (Streptococcus sp.; Streptococcus agalactiae (GC 4564)): 1 µg/mL (≈ 0.708 µM)
MIC Streptococcus pneumoniae (ATCC 6301) (Streptococcus sp.; Streptococcus pneumoniae (ATCC 6301)): <0.06 µg/mL
MIC Streptococcus pneumoniae (GC 1894) (Streptococcus sp.; Streptococcus pneumoniae (GC 1894)): <0.06 µg/mL
MIC Streptococcus pneumoniae (GC 4565) (Streptococcus sp.; Streptococcus pneumoniae (GC 4565)): <0.06 µg/mL
MIC Streptococcus pyogenes (GC 4563) (Streptococcus sp.; Streptococcus pyogenes (GC 4563)): 0.12 µg/mL (≈ 0.085 µM)
MIC Streptococcus pneumoniae (ATCC 6301) (Streptococcus sp.; strain ATCC 6301): <0.06 µg/mL
MIC Streptococcus pneumoniae (GC 1894) (Streptococcus sp.; strain GC 1894): <0.06 µg/mL
MIC Streptococcus pyogenes (GC 4563) (Streptococcus sp.; strain GC 4563): 0.12 µg/mL (≈ 0.085 µM)
MIC Streptococcus agalactiae (GC 4564) (Streptococcus sp.; strain GC 4564): 1 µg/mL (≈ 0.708 µM)
MIC Streptococcus pneumoniae (GC 4565) (Streptococcus sp.; strain GC 4565): <0.06 µg/mL
Compound: CC(c1ccccc1)C1NC(=O)CNC(=O)C(CO)NC(=O)C(C(O)C2CNC(=N)N2C2OC(CO)C(O)C(O)C2O)NC(=O)C(C(O)C2CNC(=N)N2)NC(=O)C(Cc2ccc(OC3OC(CO)C(OC4OC5COC(CCc6ccccc6)OC5C(O)C4O)C(O)C3O)cc2)NC1=O (centres unmarked) [Example 124]
MIC Staphylococcus haemolyticus (GC 4546) (Staphylococcus sp.; strain GC 4546): 2 µg/mL (≈ 1.42 µM)
